# Measurements reported in US20110082130A1 (LIGAND PHARMACEUTICALS, INC., priority 2006, published 2011).
# Molecular target: T1, chimeric human H3 receptor (Homo sapiens, UniProt Q9Y5N1)
# T1 construct: made in house; host or cells: Sf9 insect cells (baculovirus); P2 membrane preparation
# Test: Chimeric human H3 receptor screening GTP binding assay (inhibition of histamine-stimulated GTP-gamma35S binding, Example 8)
# Assay type: biochemical
# Settings: 4 μM of the compound, 1 μM histamine, "†" in Ki of Table II, read-out: percent inhibition of the signal obtained with 1 μM histamine
# Method in brief: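 Values are percent inhibition of 1 μM histamine-stimulated GTP-gamma35S […] binding, with non-specific binding (10 μM GTP-gammaS) subtracted, by compounds tested at 4 μM. Membranes (35 μg) from Sf9 cells expressing chimeric human H3 with G-protein subunits were used in Tris pH 7.4 buffer with 10 μM GDP. Incubation lasted 60 min at room temperature, followed by filtration and scintillation counting.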
# T1 sequence (Q9Y5N1 with tags, fused parts or gaps): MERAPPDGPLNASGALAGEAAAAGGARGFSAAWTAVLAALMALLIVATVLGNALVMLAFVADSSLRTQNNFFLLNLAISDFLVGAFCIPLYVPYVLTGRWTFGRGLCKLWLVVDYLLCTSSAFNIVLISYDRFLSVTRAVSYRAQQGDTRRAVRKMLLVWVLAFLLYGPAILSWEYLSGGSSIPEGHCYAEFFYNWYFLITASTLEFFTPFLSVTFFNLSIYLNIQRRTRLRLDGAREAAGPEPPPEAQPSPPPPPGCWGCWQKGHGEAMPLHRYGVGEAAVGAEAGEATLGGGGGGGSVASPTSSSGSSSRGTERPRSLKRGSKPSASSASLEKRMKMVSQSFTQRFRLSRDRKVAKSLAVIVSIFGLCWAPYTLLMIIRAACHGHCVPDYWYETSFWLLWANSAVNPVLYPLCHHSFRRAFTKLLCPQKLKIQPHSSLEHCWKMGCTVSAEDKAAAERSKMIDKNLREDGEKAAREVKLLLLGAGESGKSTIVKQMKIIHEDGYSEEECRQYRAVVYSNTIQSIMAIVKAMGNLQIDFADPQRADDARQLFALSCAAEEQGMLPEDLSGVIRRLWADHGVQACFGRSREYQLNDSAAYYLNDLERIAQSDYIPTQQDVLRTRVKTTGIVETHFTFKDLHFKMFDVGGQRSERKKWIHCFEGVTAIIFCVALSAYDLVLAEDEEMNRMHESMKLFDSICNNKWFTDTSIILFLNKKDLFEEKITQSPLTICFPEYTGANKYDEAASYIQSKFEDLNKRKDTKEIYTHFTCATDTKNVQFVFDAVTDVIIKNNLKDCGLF
row,inhibition at 4 µM [%],Structure (SMILES)
1,≥ 90,"Cc1ccc(-c2ccc3c(c2)CCN(CC(=O)N2CCN(C(C)C)CC2)C3)cc1C [Compound 450, 6-(3,4-dimethylphenyl)-2-[2-(4-isopropylpiperazin-1-yl)-2-oxoethyl]-1,2,3,4-tetrahydroisoquinoline]"
2,≥ 90,"CCCCc1ccc(-c2ccc3c(c2)CCN(CC(=O)N2CCN(C4CCC4)CC2)C3)cc1 [Compound 451, 6-(4-butylphenyl)-2-[2-(4-cyclobutylpiperazin-1-yl)-2-oxoethyl]-1,2,3,4-tetrahydroisoquinoline]"
3,≥ 90,"CCCCc1ccc(-c2ccc3c(c2)CCN(CC(=O)N2CCN(C(C)C)CC2)C3)cc1 [Compound 454, 6-(4-butylphenyl)-2-[2-(4-isopropylpiperazin-1-yl)-2-oxoethyl]-1,2,3,4-tetrahydroisoquinoline]"
4,≥ 90,"Cc1cc(C)cc(-c2ccc3c(c2)CCN(CC(=O)N2CCN(C(C)C)CC2)C3)c1 [Compound 458, 6-(3,5-dimethylphenyl)-2-[2-(4-isopropylpiperazin-1-yl)-2-oxoethyl]-1,2,3,4-tetrahydroisoquinoline]"
5,≥ 90,"CCc1ccc(-c2ccc3c(c2)CCN(CC(=O)N2CCN(C4CCC4)CC2)C3)cc1 [Compound 459, 2-[2-(4-cyclobutylpiperazin-1-yl)-2-oxoethyl]-6-(4-ethylphenyl)-1,2,3,4-tetrahydroisoquinoline]"
6,≥ 90,"CCc1ccc(-c2ccc3c(c2)CCN(CC(=O)N2CCN(C4CCCC4)CC2)C3)cc1 [Compound 460, 2-[2-(4-cyclopentylpiperazin-1-yl)-2-oxoethyl]-6-(4-ethylphenyl)-1,2,3,4-tetrahydroisoquinoline]"
7,≥ 90,"CCc1ccc(-c2ccc3c(c2)CCN(CC(=O)N2CCN(C4CCCCC4)CC2)C3)cc1 [Compound 461, 2-[2-(4-cyclohexylpiperazin-1-yl)-2-oxoethyl]-6-(4-ethylphenyl)-1,2,3,4-tetrahydroisoquinoline]"
8,≥ 90,"CCc1ccc(-c2ccc3c(c2)CCN(CC(=O)N2CCN(C(C)C)CC2)C3)cc1 [Compound 462, 6-(4-ethylphenyl)-2-[2-(4-isopropylpiperazin-1-yl)-2-oxoethyl]-1,2,3,4-tetrahydroisoquinoline]"
9,≥ 90,"CCCc1ccc(-c2ccc3c(c2)CCN(CC(=O)N2CCN(C4CCC4)CC2)C3)cc1 [Compound 463, 2-[2-(4-cyclobutylpiperazin-1-yl)-2-oxoethyl]-6-(4-propylphenyl)-1,2,3,4-tetrahydroisoquinoline]"
10,≥ 90,"CCCc1ccc(-c2ccc3c(c2)CCN(CC(=O)N2CCN(C4CCCC4)CC2)C3)cc1 [Compound 464, 2-[2-(4-cyclopentylpiperazin-1-yl)-2-oxoethyl]-6-(4-propylphenyl)-1,2,3,4-tetrahydroisoquinoline]"
11,≥ 90,"CCCc1ccc(-c2ccc3c(c2)CCN(CC(=O)N2CCN(C4CCCCC4)CC2)C3)cc1 [Compound 465, 2-[2-(4-cyclohexylpiperazin-1-yl)-2-oxoethyl]-6-(4-propylphenyl)-1,2,3,4-tetrahydroisoquinoline]"
12,≥ 90,"CCCc1ccc(-c2ccc3c(c2)CCN(CC(=O)N2CCN(C(C)C)CC2)C3)cc1 [Compound 466, 2-[2-(4-isopropylpiperazin-1-yl)-2-oxoethyl]-6-(4-propylphenyl)-1,2,3,4-tetrahydroisoquinoline]"
13,≥ 90,"CCc1cccc(-c2ccc3c(c2)CCN(CC(=O)N2CCN(C(C)C)CC2)C3)c1 [Compound 470, 6-(3-ethylphenyl)-2-[2-(4-isopropylpiperazin-1-yl)-2-oxoethyl]-1,2,3,4-tetrahydroisoquinoline]"
14,≥ 90,"CC(C)N1CCN(C(=O)CN2CCc3cc(-c4ccc(C(C)(C)C)cc4)ccc3C2)CC1 [Compound 474, 6-(4-tert-butylphenyl)-2-[2-(4-isopropylpiperazin-1-yl)-2-oxoethyl]-1,2,3,4-tetrahydroisoquinoline]"

# The next lines start with the compound.
row,Structure (SMILES),inhibition at 4 µM [%]
1,"Cc1ccc(-c2ccc3c(c2)CCN(CC(=O)N2CCN(C4CCCCC4)CC2)C3)cc1C [Compound 449, 2-[2-(4-cyclohexylpiperazin-1-yl)-2-oxoethyl]-6-(3,4-dimethylphenyl)-1,2,3,4-tetrahydroisoquinoline]",≥ 90
2,"CCCCc1ccc(-c2ccc3c(c2)CCN(CC(=O)N2CCN(C4CCCC4)CC2)C3)cc1 [Compound 452, 6-(4-butylphenyl)-2-[2-(4-cyclopentylpiperazin-1-yl)-2-oxoethyl]-1,2,3,4-tetrahydroisoquinoline]",≥ 90
3,"CCCCc1ccc(-c2ccc3c(c2)CCN(CC(=O)N2CCN(C4CCCCC4)CC2)C3)cc1 [Compound 453, 6-(4-butylphenyl)-2-[2-(4-cyclohexylpiperazin-1-yl)-2-oxoethyl]-1,2,3,4-tetrahydroisoquinoline]",≥ 90
4,"Cc1cc(C)cc(-c2ccc3c(c2)CCN(CC(=O)N2CCN(C4CCC4)CC2)C3)c1 [Compound 455, 2-[2-(4-cyclobutylpiperazin-1-yl)-2-oxoethyl]-6-(3,5-dimethylphenyl)-1,2,3,4-tetrahydroisoquinoline]",≥ 90
5,"Cc1cc(C)cc(-c2ccc3c(c2)CCN(CC(=O)N2CCN(C4CCCC4)CC2)C3)c1 [Compound 456, 2-[2-(4-cyclopentylpiperazin-1-yl)-2-oxoethyl]-6-(3,5-dimethylphenyl)-1,2,3,4-tetrahydroisoquinoline]",≥ 90
6,"Cc1cc(C)cc(-c2ccc3c(c2)CCN(CC(=O)N2CCN(C4CCCCC4)CC2)C3)c1 [Compound 457, 2-[2-(4-cyclohexylpiperazin-1-yl)-2-oxoethyl]-6-(3,5-dimethylphenyl)-1,2,3,4-tetrahydroisoquinoline]",≥ 90
7,"CCc1cccc(-c2ccc3c(c2)CCN(CC(=O)N2CCN(C4CCC4)CC2)C3)c1 [Compound 467, 2-[2-(4-cyclobutylpiperazin-1-yl)-2-oxoethyl]-6-(3-ethylphenyl)-1,2,3,4-tetrahydroisoquinoline]",≥ 90
8,"CCc1cccc(-c2ccc3c(c2)CCN(CC(=O)N2CCN(C4CCCC4)CC2)C3)c1 [Compound 468, 2-[2-(4-cyclopentylpiperazin-1-yl)-2-oxoethyl]-6-(3-ethylphenyl)-1,2,3,4-tetrahydroisoquinoline]",≥ 90
9,"CCc1cccc(-c2ccc3c(c2)CCN(CC(=O)N2CCN(C4CCCCC4)CC2)C3)c1 [Compound 469, 2-[2-(4-cyclohexylpiperazin-1-yl)-2-oxoethyl]-6-(3-ethylphenyl)-1,2,3,4-tetrahydroisoquinoline]",≥ 90
10,"CC(C)(C)c1ccc(-c2ccc3c(c2)CCN(CC(=O)N2CCN(C4CCC4)CC2)C3)cc1 [Compound 471, 6-(4-tert-butylphenyl)-2-[2-(4-cyclobutylpiperazin-1-yl)-2-oxoethyl]-1,2,3,4-tetrahydroisoquinoline]",≥ 90
11,"CC(C)(C)c1ccc(-c2ccc3c(c2)CCN(CC(=O)N2CCN(C4CCCC4)CC2)C3)cc1 [Compound 472, 6-(4-tert-butylphenyl)-2-[2-(4-cyclopentylpiperazin-1-yl)-2-oxoethyl]-1,2,3,4-tetrahydroisoquinoline]",≥ 90
12,"CC(C)(C)c1ccc(-c2ccc3c(c2)CCN(CC(=O)N2CCN(C4CCCCC4)CC2)C3)cc1 [Compound 473, 6-(4-tert-butylphenyl)-2-[2-(4-cyclohexylpiperazin-1-yl)-2-oxoethyl]-1,2,3,4-tetrahydroisoquinoline]",≥ 90
